Where a SMILES comes first, the peptide text is derived from it. [ ]: non-standard residue; d: D form. pY = N[C@@H](Cc1ccc(OP(=O)(O)O)cc1)C(=O)O; pT = C[C@@H](OP(=O)(O)O)[C@H](N)C(=O)O
What was measured:
[1] = system: BGC823 cells; assay: Xenograft screening of MMP2-targeted peptides by intraperitoneal injection; type: in vivo, BALB/c nude mice
Method: (§1) For establishing xenograft mouse models, 5 × 10^6/200 μL of BGC823 cells were subcutaneously injected into flank of BALB/c nude mice. When the tumor volume (V = 0.5 × length × width^2) reached about 100 mm^3, the mice were randomly divided into different groups and received the indicated treatments. General situations and activities of each mouse were daily recorded. Tumor sizes were recorded by caliper every 3 days for calculating tumor volumes. Body weight of the experimental mouse was also recorded every 3 days. The endpoint of the experimental therapy was determined until enough growth (up to 2000 mm^3) of the xenograft tumor or intolerable side effects.
(§2) In the present study, the strategy to screen JWA protein based functional tumor inhibitory peptides included four steps, (1) all the candidate fragments were selected from non-transmembrane regions and contain amino acid can be phosphorylated in its sequence; (2) the intra-tumor injection in xenograft GC tumor in mouse model was used for first round screening for all candidate fragments; (3) the identified functional peptides in (2) were modified with HWGF as MMP2 target and used for secondary screening by intraperitoneal injection in xenograft GC mouse model; (4) the functional peptides selected in (3) were further used to inhibit metastasis of GC (Fig. 1a).

[2] = system: CD31; assay: Western blotting of xenograft tumor tissues; type: in vivo, BALB/c nude mice; details: nude mice bearing GC
Method: (§3) Western blotting analysis was carried out as previously described. The antibodies against MMP2, Tubulin, Ub, HA-tag, Flag-tag and Ki-67 were purchased from Cell Signal Technology (Danvers MA, USA); anti-CD31 and PCNA were provided by Epitomics (MA, USA); anti-GAPDH and Actin were purchased from Beyotime (Jiangsu, China); anti-TRIM25 and SP1 were provided by Proteintech (Wuhan, China); anti-His was purchased from MBL (Japan). All above antibodies were used at a dilution of 1:1000.

[3] = system: MMP2; assay: Western blotting of xenograft tumor tissues; type: in vivo, BALB/c nude mice; details: nude mice bearing GC
Method: as §3

[4] = system: PCNA; assay: Western blotting of xenograft tumor tissues; type: in vivo, BALB/c nude mice; details: nude mice bearing GC
Method: as §3

[5] = system: SP1; assay: Western blotting of xenograft tumor tissues; type: in vivo, BALB/c nude mice; details: compared to the Ctrl-P-H treatment
Method: as §3

[6] = system: TRIM25; assay: Western blotting of xenograft tumor tissues; type: in vivo, BALB/c nude mice; details: compared to the Ctrl-P-H treatment
Method: as §3

[7] = system: CD31 (microvessel density (MVD)); assay: IHC of xenograft tumor sections; type: in vivo, BALB/c nude mice
Method: (§4) Fig. 1 MMP2-targeted polypeptide JP3 inhibits growth and metastasis of GC in vivo. a The screening flowchart of JWA candidate peptides in nude mice. b The name and amino acid sequence of six fragments. c The ratios of mouse xenograft tumor weight/mice weight from screening model by intratumor injection. d The inhibition rates of tumor growth from screening model by intraperitoneal injection. e The expression levels of MMP2, CD31 and PCNA protein were analyzed using Western blotting in tumor tissues from nude mice bearing GC. f-g Sections of tumors were stained with anti-Ki-67 and anti-CD31 antibodies by IHC (scale bars = 50 μm). h-i The luciferase signals in the mice were detected and photographed using an IVIS in vivo image system. j-k The representative HE staining sections of lung (scale bars = 2 mm). l-m Sections of lung were stained with anti-CD31 antibodies by IHC (scale bars = 50 μm). The data are presented as the means ± SEM, ns: no significance, *P < 0.05, **P < 0.01

[8] = system: Ki-67; assay: IHC of xenograft tumor sections; type: in vivo, BALB/c nude mice
Method: as §4

[9] = system: BGC823 cells; assay: Metastatic GC mouse model (tail vein injection, bioluminescence imaging, HE staining of lung); type: in vivo, BALB/c nude mice
Method: For establishment of metastatic GC mouse model, five-week-old BALB/c nude mice were randomly divided into two groups, 3 mice each. BGC823 cells were suspended in PBS. The mice were injected intravenously with 2 × 10^6 cells in 0.15 mL of PBS through tail vein. On next day, the mice were treated by intra-peritoneal (ip) injection of Ctrl-H-P and JP3 and followed by luciferase substrate (GM-040611, Genomeditech, China); and photographed using the IVIS Spectrum in vivo imaging system (PerkinElmer, USA) on day 50th to observe the cancer cell metastasis.

[10] = system: CD31; assay: IHC of lung sections, metastatic GC mouse model; type: in vivo, BALB/c nude mice
Method: as §4
For establishment of metastatic GC mouse model, five-week-old BALB/c nude mice were randomly divided into two groups, 3 mice each. BGC823 cells were suspended in PBS. The mice were injected intravenously with 2 × 10^6 cells in 0.15 mL of PBS through tail vein. […]

[11] = system: BGC823 cells; assay: Colony formation assay; type: cell-based, human; details: different concentrations of JP3
[12] = system: HUVECs; assay: HUVECs tube formation assay with conditional medium of peptide-treated GC cells; type: cell-based, human; details: 4 h on Matrigel
Method: After 6 hours of peptide treatment of GC cells, the medium was replaced and cultured in a 60 mm petri dish containing 1% serum for 24 h. On the next day, 2 mL of conditional medium was collected. For tube formation assay, a 96-well plate was coated with 50 μL of Matrigel™ (BD Biosciences) and kept at 37 °C for 2 h. Then, 1.2 × 10^4 HUVECs suspended in 100 μL of conditional medium were applied to each well of the precoated 96-well plate. After incubation at 37 °C for 4 h, tubular structures formed in the Matrigel were captured in five randomly selected fields per sample under a microscope.

[13] = system: HUVECs; assay: HUVECs tube formation assay, direct treatment of HUVECs; type: cell-based, human; details: HUVECs treated at similar dose for 24 h
[14] = system: SP1; assay: Western blotting in GC cells; type: cell-based; details: SGC7901 and BGC823 (Non(p)-JP3: BGC823, 24 h)
Method: as §3

[15] = system: JWA; assay: Western blotting in GC cells; type: cell-based, human; details: SGC7901 and BGC823
Method: as §3

[16] = system: MMP2; assay: Western blotting in GC cells; type: cell-based, human; details: SGC7901 and BGC823 (Non(p)-JP3: BGC823, 24 h)
Method: as §3

[17] = system: TRIM25; assay: Western blotting in BGC823 cells; type: cell-based, human; details: 0, 1, 10, 50 μM for 24 h
Method: as §3

[18] = system: SP1; assay: Protein stability, CHX chase and Western blotting; type: cell-based, human; details: BGC823 cells; 50 μM for 24 h, then CHX
Method: as §3

[19] = system: TRIM25; assay: Protein stability, CHX chase and Western blotting; type: cell-based, human; details: BGC823 cells; 50 μM for 12 h, then CHX
Method: as §3

[20] = system: SP1; assay: Ubiquitination assay; type: cell-based, human
Method: (§5) GC cells were treated with or without JP3, followed by incubation with MG132 (10 μM) for another 6 h. Cells were harvested, prepared for protein samples and divided for Western blotting and co-IP assay, respectively. For co-IP assay, the protein (500 μg) was cultured with anti-SP1 or anti-TRIM25 antibody (dilution: 1:250) at 4 °C for 1 h, and Protein A/G Plus-Agarose overnight. After three cycles of washing in pre-cold IP buffer and centrifugation at 4 °C, 1000×g for 5 min, the immunoprecipitate was collected by centrifugation, eluted and examined by Western blotting.

[21] = system: TRIM25; assay: Ubiquitination assay; type: cell-based, human; details: BGC823 cells; His-Ub 48 h, 50 μM 24 h, MG132 10 μM 6 h; IP anti-TRIM25
Method: as §5

[22] = system: SP1 mRNA; assay: qRT-PCR; type: cell-based, human; details: BGC823 and SGC7901 cells
Method: (§6) According to the manufacturer’s protocol, total RNAs were isolated using TRIzol (Invitrogen, CA, USA) and reversely transcribed into cDNAs using reverse transcription kit and the SYBR Green Master Mix kit (Takara, Otsu, Japan). The complementary DNA (cDNA) was amplified with the following primers: 5′-[…]-3′ (forward) and 5′-[…]-3′ (reverse) for TRIM25; 5′-[…]-3′ (forward) and 5′-[…]-3′ (reverse) for GAPDH; 5′-[…]’-3′ (forward) and 5′-[…]-3′ (reverse) for SP1. Quantitative RT-PCR was carried out an ABI Prism 7900 Sequence detection system (Applied Biosystems, Canada). Relative levels were normalized to that of GAPDH.

[23] = system: TRIM25 mRNA; assay: qRT-PCR; type: cell-based, human
Method: as §6

[24] = Toxicity and body weight in treated mice; type: in vivo, BALB/c nude mice; details: xenograft and metastatic mice models
[25] = system: BGC823 cells; assay: Xenograft screening of candidate peptides by intra-tumor injection; type: in vivo, BALB/c nude mice; details: BGC823 subcutaneous xenograft; intra-tumor injection 10 mg/kg/d for 5 days/week x 2 weeks
Method: as §1, §2

## CSCC[C@H](NC(=O)[C@H](CCCNC(=N)N)NC(C)=O)C(=O)N[C@@H](CCCCN)C(=O)N[C@@H](CCCCN)C(=O)N[C@@H](CCCNC(=N)N)C(=O)N[C@@H](Cc1ccc(O)cc1)C(=O)N1CCC[C@H]1C(=O)N[C@H](C(=O)N[C@H](C(=O)N[C@@H](Cc1ccccc1)C(=O)N[C@H](C(=O)N[C@@H](CCSC)C(=O)N[C@H](C(=O)N[C@H](C(=O)NCC(=O)NCC(=O)NCC(=O)NCC(=O)N[C@@H](Cc1c[nH]cn1)C(=O)N[C@@H](Cc1c[nH]c2ccccc12)C(=O)NCC(=O)N[C@@H](Cc1ccccc1)C(N)=O)C(C)C)C(C)C)C(C)C)[C@@H](C)OP(=O)(O)O)[C@@H](C)O [JP3] (Ac-RMKKRYPT[pT]FVMVVGGGGHWGF-NH2)
[1]; BGC823 subcutaneous xenograft, intraperitoneal injection 50 mg/kg/d for 12 days
  tumor inhibitory rate (inhibition of xenograft tumor growth): best tumor inhibitory rate among candidates
[2]
  expression of CD31 in GC tumor tissues: down-regulated
[3]
  expression of MMP2 in GC tumor tissues: down-regulated
[4]
  expression of PCNA in GC tumor tissues: down-regulated
[5]
  expression of SP1 in GC tumor tissues: down-regulated
[6]
  expression of TRIM25 in GC tumor tissues: up-regulated
[7]
  expression of CD31 (microvessel density (MVD)) in GC tumor tissues: suppressed
[8]
  expression of Ki-67 in GC tumor tissues: suppressed
[9]; HE staining
  relative area of metastatic tumor in lung: significantly decreased
[9]; bioluminescence imaging on day 50, ip injection, compared with Ctrl-P-H group, 3 mice each
  fluorescence intensity of GC cell metastatic foci: obviously reduced
[10]
  expression of CD31 in GC metastatic tissues: significantly suppressed
[11]
  effect on GC cell proliferation in vitro (colony numbers): no obvious effects
[12]; supernatent of peptide-treated BGC823 cells
  tubular formation of HUVECs: dose-dependently inhibited
[12]; supernatent of peptide-treated SGC7901 cells
  tubular formation of HUVECs: dose-dependently inhibited
[13]
  tubular formation of HUVECs, direct treatment: no obvious effects
[14]
  expression of SP1 in GC cells: down-regulated
[15]
  expression of JWA in GC cells: no obvious effect
[16]
  expression of MMP2 in GC cells: down-regulated
[17]
  TRIM25 protein level: dose-dependent increase
[18]
  degradation (stability) of SP1: accelerated degradation
[19]
  degradation (stability) of TRIM25: slowed down the degradation
[20]; BGC823, His-ub, JP3 50 μM, with MG132 10 μM 6 h, control = 1.00, MG132 alone 1.50
  relative band intensity printed with the blot (IP: SP1, IB: ubiquitin): 2.17
[20]; BGC823 and SGC7901 cells, His-ub 48 h, 50 μM for 24 h, IP anti-SP1
  ubiquitinated SP1: increased
[21]
  ubiquitinated TRIM25: decreased
[22]
  mRNA level of SP1: not affected
[23]
  mRNA level of TRIM25: not affected
[24]
  side effects: undetectable side effects

## HWGF [histidine-tryptophan-glycine-phenylalanine, reference compound]
[1]; HWGF targeting MMP2 alone
  biological function to inhibit gastric cancer: no biological function to inhibit gastric cancer

## CSCC[C@H](NC(=O)[C@H](CCCNC(=N)N)NC(C)=O)C(=O)N[C@@H](CCCCN)C(=O)N[C@@H](CCCCN)C(=O)N[C@@H](CCCNC(=N)N)C(=O)N[C@@H](Cc1ccc(OP(=O)(O)O)cc1)C(=O)N1CCC[C@H]1C(=O)N[C@H](C(=O)N[C@H](C(=O)N[C@@H](Cc1ccccc1)C(=O)N[C@H](C(=O)N[C@@H](CCSC)C(=O)N[C@H](C(=O)N[C@H](C(N)=O)C(C)C)C(C)C)C(C)C)[C@@H](C)O)[C@@H](C)O [PJP3–1] (Ac-RMKKR[pY]PTTFVMVV-NH2)
[25]
  tumor inhibitory effect (ratio of mouse xenograft tumor weight/mice weight): better effects than the others

## CC[C@H](C)[C@H](NC(C)=O)C(=O)NCC(=O)N[C@@H](CC(C)C)C(=O)N[C@@H](CCCCN)C(=O)N[C@@H](CCCNC(=N)N)C(=O)N[C@H](C(=O)N1CCC[C@H]1C(=O)N[C@@H](CCSC)C(=O)NCC(=O)N[C@H](C(=O)N[C@H](C(N)=O)C(C)C)[C@@H](C)CC)[C@@H](C)OP(=O)(O)O [PJP5] (Ac-IGLKR[pT]PMGIV-NH2)
[25]
  tumor inhibitory effect (ratio of mouse xenograft tumor weight/mice weight): better effects than the others

## CSCC[C@H](NC(=O)[C@H](CCCNC(=N)N)NC(C)=O)C(=O)N[C@@H](CCCCN)C(=O)N[C@@H](CCCCN)C(=O)N[C@@H](CCCNC(=N)N)C(=O)N[C@@H](Cc1ccc(O)cc1)C(=O)N1CCC[C@H]1C(=O)N[C@H](C(=O)N[C@H](C(=O)N[C@@H](Cc1ccccc1)C(=O)N[C@H](C(=O)N[C@@H](CCSC)C(=O)N[C@H](C(=O)N[C@H](C(N)=O)C(C)C)C(C)C)C(C)C)[C@@H](C)OP(=O)(O)O)[C@@H](C)O [PJP3–3] (Ac-RMKKRYPT[pT]FVMVV-NH2)
[25]
  tumor inhibitory effect (ratio of mouse xenograft tumor weight/mice weight): better effects than the others
